Measurements reported in patent US20070219212A1, “Pyranouidole Derivatives and the Use Thereof for the Treatment of Hepatitis C Virus Infection or Disease” (priority 2004, published 2007).
Like-named read-outs stand apart in the source and are kept apart here.

How the values were obtained:
[1] = target: T1, NS5B from the BK strain (genotype 1b) (Hepatitis C virus genotype 1b, UniProt P26663); assay: Hepatitis C polymerase (NS5B, BK strain) inhibition, radioactive filter assay; assay type: biochemical; conditions: NS5B BK strain (genotype 1b)
T1 construct: NS5B from the BK strain (genotype 1b) is expressed in E coli as a protein in which the 21 C-terminal amino acids are replaced; made in house; host or cells: E. coli
Description: (§1) The ability of the compounds of the present invention to inhibit Hepatitis C Polymerase was established by the following experimental procedure:
NS5B from the BK strain (genotype 1b) is expressed in E coli as a protein in which the 21 C-terminal amino acids are replaced with a short linker and a hexahistidine tag ([…]). The purified protein is mixed with radioactive nucleotides and allowed to replicate a heteropolymeric RNA substrate, primed by an endogenous short hairpin, resulting in an approximately 760 nt product. The radioactive product is captured on a filter and quantitated after removal of the unincorporated nucleotides.
(§2) • 0.5M Na Phosphate buffer. Per liter, weigh 134 gr Na2HPO4.7H2O, add water to 900 ml. Adjust pH to 7.0 with phosphoric acid. Top off with water to 1 L. • Dilute nucleotides 1:1000 to 10 μM (GTP and CTP) or 1:100 to 100 μM (ATP and UTP) into RNase free water. Procedure: • (1) Compounds 10 μl at […] in 15% dimethylsulfoxide (DMSO) When starting from 100 μg/ml compound stock in 1% DMSO: Dispense 5 μl 30% DMSO per well Dispense 5 μl compound (100 μg/ml) per well. When starting from 50 μg/ml compound stock in 15% DMSO: Add 10 μl compound per well.
(§3) Add 20 μl enzyme mix into each well of the assay plate. Incubate compound and enzyme at room temperature for 15 minutes • (3) Template mix—prepare ahead
(§4) Spin down a tube of RNA (5 μg/tube stored in 75% ethanol and 0.3 M sodium acetate) in a microcentrifuge for 20 minutes at 4° C. One tube is enough for 1-1.5 plates. Remove as much ethanol from the tube as possible by inverting the tube. Be gentle, pellet RNA may not adhere to the tube. Vacuum dry the RNA. Resuspend the RNA by adding 1 ml of DEPC water, close the cap of the tube tightly. To dissolve RNA, incubate RNA solution on ice for ˜60 minutes and gently vortex. Spin briefly to ensure all RNA solution is down to the bottom of the tube before opening cap. Gently transfer RNA solution into a 5 ml or larger tube. Add another 3 ml of DEPC water (total 4 ml of volume).
(§5) Add the following volumes of reagents
(§6) Add 20 μl template mix per reaction (i.e. 20 ng of pOF per reaction or ˜3 nM) • (4) Incubate reaction at room temperature (22-25° C.) for 2 hours. • (5) Stop reaction by adding 50 μl of 170 mM EDTA.
(§7) Final concentration of EDTA is 85 mM. • (6) Prewet filters of Millipore multiscreen assay plate by adding 200 μl of 0.5 M sodium phosphate buffer, pH 7.0 into each well. Let stand at room temperature for 2-3 minutes. • (7) Place the multiscreen filter plate onto a Millipore Manifold and turn on vacuum to allow buffer to flow through. Turn off vacuum. Transfer 80 μl of the reaction product into each well of the filter plate. Let stand for 2-3 minutes. Turn on vacuum to filter reaction product. • (8) Turn off vacuum. Add 200 μl of 0.5 M sodium phosphate buffer, pH 7.0 into each well to wash filter. Turn on vacuum.
(§8) Repeat step (8) three more times. • (9) Remove polypropylene bottom. Spot dry filter at the bottom with paper towel. Air dry filter plate on a bench for 1 hour. Add 40 μl Super Mix scintillant. Seal top of the plate with a tape. Place plate into a Packard carrier or micro-beta carrier. • (10) Count plate using a Packard Topcount or micro-beta counter. Count (for example using Program 10) for ^33P in Top count or ^33P program in micro-beta.
(§9) See, Ferrari et al. 1999. J. Virology 73:1649-1654: “Characterization of soluble Hepatitis C virus RNA-dependent RNA polymerase expressed in E. coli and Takamizawa et al. 1991” and J. Virology 65:1105-1113: “Structure and characterization of the Hepatitis C virus genome isolated from human carriers,” both references are hereby incorporated by reference.

[2] = target: BB7 RNA-dependent RNA polymerase hepatitis C virus protein (Con1 HCV sequence) (Hepatitis C virus genotype 1b, UniProt Q9WMX2); assay: Hepatitis C polymerase (BB7) inhibition; assay type: biochemical
Description: For purposes of this invention, the term “BB7” denotes an RNA-dependent RNA polymerase hepatitis C virus protein sequence which is derived from HCV replicon. A discussion of BB7 and related technology can be found in Blight, K. et al. (2000) Science 290:1972-1974. BB7 can be licensed from Apath, LLC (893 North Warson Road, Saint Louis Mo. 63141, USA). BB7 is also referred to as Con1 HCV sequence and discussions of Con1 can be found in the following references: Lohmann, V. et al. (1999) Science 285:110-113; Pietschmann, T. et al. (2001) J. Virol. […]:1252-1264; Lohmann, V. et al. (2001) J. Virol. 75:1437-1449.
as §1, §2, §3, §4, §5, §6, §7, §8, §9

[3] = BB7 (Con1) NS5B, read-out: BB7 IC50

T1 sequence (P26663 2420-2989): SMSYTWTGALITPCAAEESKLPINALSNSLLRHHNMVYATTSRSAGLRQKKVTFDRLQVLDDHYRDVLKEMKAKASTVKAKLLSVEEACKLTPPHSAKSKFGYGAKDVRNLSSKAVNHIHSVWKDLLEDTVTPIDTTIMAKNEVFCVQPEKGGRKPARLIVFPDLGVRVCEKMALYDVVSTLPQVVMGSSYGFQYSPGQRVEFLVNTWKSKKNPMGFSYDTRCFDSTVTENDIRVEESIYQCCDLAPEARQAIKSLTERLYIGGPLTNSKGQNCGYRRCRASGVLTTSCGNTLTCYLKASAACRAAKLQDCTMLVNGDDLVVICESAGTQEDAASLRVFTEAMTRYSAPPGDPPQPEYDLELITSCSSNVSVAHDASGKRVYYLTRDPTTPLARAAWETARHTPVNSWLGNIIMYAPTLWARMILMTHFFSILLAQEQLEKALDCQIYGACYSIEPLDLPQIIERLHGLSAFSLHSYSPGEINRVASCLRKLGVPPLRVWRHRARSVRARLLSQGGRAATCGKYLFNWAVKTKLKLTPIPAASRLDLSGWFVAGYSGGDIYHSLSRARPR
Sequence of BB7 RNA-dependent RNA polymerase hepatitis C virus protein (Con1 HCV sequence) (Q9WMX2 2420-3010): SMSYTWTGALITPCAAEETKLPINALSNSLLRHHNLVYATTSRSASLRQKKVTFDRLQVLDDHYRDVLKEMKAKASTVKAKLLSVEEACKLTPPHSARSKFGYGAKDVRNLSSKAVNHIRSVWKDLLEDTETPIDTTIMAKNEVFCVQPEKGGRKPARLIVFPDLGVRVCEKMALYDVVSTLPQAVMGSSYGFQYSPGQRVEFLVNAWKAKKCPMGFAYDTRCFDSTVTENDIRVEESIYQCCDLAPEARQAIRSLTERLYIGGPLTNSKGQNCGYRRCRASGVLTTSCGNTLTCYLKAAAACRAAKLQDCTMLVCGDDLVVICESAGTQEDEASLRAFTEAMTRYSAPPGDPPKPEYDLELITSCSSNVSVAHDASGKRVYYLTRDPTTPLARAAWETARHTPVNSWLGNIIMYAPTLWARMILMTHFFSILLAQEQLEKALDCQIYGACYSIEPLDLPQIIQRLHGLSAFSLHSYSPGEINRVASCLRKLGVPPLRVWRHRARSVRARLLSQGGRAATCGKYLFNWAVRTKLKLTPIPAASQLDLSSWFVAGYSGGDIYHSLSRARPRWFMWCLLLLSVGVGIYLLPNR

CC#CCOCc1cc(C#N)c2c3c([nH]c2c1C)C(CCC)(CC(=O)O)OCC3 (stereo not shown) [Example 11, (7-But-2-ynyloxymethyl-5-cyano-8-methyl-1-propyl-1,3,4,9-tetrahydro-pyrano[3,4-b]indol-1-yl)-acetic acid]
IC50 [1]: 0.5 to 5 µM
IC50 [2]: 0.5 to 5 µM

CCCC1(CC(=O)O)OCCc2c1[nH]c1c(C)c(OCc3cc(C)nc(C)c3)cc(C#N)c21 (stereo not shown) [Example 109]
IC50 [1]: < 0.5 µM
IC50 [2, 3]: < 0.5 µM

CCCC1(CC(=O)O)OCCc2c1[nH]c1c(C)c(OCc3ccc(N4CCOCC4)nc3)cc(C#N)c21 (stereo not shown) [Example 68]
IC50 [1]: < 0.5 µM
IC50 [2]: < 0.5 µM

CCCC1(CC(=O)O)OCCc2c1[nH]c1c(C)c(OCc3cccnc3C)cc(C#N)c21 (stereo not shown) [Example 62]
IC50 [1]: < 0.5 µM
IC50 [2, 3]: < 0.5 µM

CCCC1(CC(=O)O)OCCc2c1[nH]c1c(C)c(OCc3cc(Br)no3)cc(C#N)c21 (stereo not shown) [Example 81]
IC50 [1]: < 0.5 µM
IC50 [2]: < 0.5 µM

CCCC1(CC(=O)O)OCCc2c1[nH]c1c(C)c(OCc3ccnc(C(N)=O)c3)cc(C#N)c21 (stereo not shown) [Example 65]
IC50 [1]: < 0.5 µM
IC50 [2]: < 0.5 µM

CCCC1(CC(=O)O)OCCc2c1[nH]c1c(C)c(OCC(C)=NOCC)cc(C#N)c21 (stereo not shown) [Example 105]
IC50 [1]: < 0.5 µM
IC50 ([2]; read-out: BB7 IC50, BB7 (Con1) NS5B): < 0.5 µM

CCCC1(CC(=O)O)OCCc2c1[nH]c1c(C)c(OCC3CCOCC3)cc(C#N)c21 (stereo not shown) [Example 108]
IC50 [1]: < 0.5 µM
IC50 [2, 3]: < 0.5 µM

CCCC1(CC(=O)O)OCCc2c1[nH]c1c(C)c(OCCSC)cc(C#N)c21 (stereo not shown) [Example 50]
IC50 [1]: < 0.5 µM
IC50 [2]: < 0.5 µM

CCCC1(CC(=O)O)OCCc2c1[nH]c1c(C)c(COc3cccc(F)c3)cc(C#N)c21 (stereo not shown) [Example 21, [5-Cyano-7-(3-fluoro-phenoxymethyl)-8-methyl-1-propyl-1,3,4,9-tetrahydro-pyrano[3,4-b]indol-1-yl]-acetic acid]
IC50 [1]: < 0.5 µM
IC50 [2]: < 0.5 µM

CCCC1(CC(=O)O)OCCc2c1[nH]c1c(C)c(OCCOCC3CC3)cc(C#N)c21 (stereo not shown) [Example 120]
IC50 [1]: < 0.5 µM
IC50 [2, 3]: < 0.5 µM

CCCC1(CC(=O)O)OCCc2c1[nH]c1c(C)c(OCC(C)=NOC)cc(C#N)c21 (stereo not shown) [Example 100]
IC50 [1]: < 0.5 µM
IC50 [2]: < 0.5 µM

CCCC1(CC(=O)O)OCCc2c1[nH]c1c(C)c(OCC3CN(S(C)(=O)=O)C3)cc(C#N)c21 (stereo not shown) [Example 123]
IC50 [1]: < 0.5 µM
IC50 [2]: < 0.5 µM

CCCC1(CC(=O)O)OCCc2c1[nH]c1c(C)c(O[C@H]3CCOC3)cc(C#N)c21 (stereo partly shown) [Example 40]
IC50 [1]: < 0.5 µM
IC50 [2]: < 0.5 µM

CCCC1(CC(=O)O)OCCc2c1[nH]c1c(C)c(O[C@@H]3CCOC3)cc(C#N)c21 (stereo partly shown) [Example 39]
IC50 [1]: < 0.5 µM
IC50 [2, 3]: < 0.5 µM

CCC(C)C1(CC(=O)O)OCCc2c1[nH]c1c(C)c(OCc3cc(C)n(C)n3)cc(C#N)c21 [Example 36, (1R*,10S)-[1-sec-Butyl-5-cyano-7-(1,5-dimethyl-1H-pyrazol-3-ylmethoxy)-8-methyl-1,3,4,9-tetrahydro-pyrano[3,4-b]indol-1-yl]-acetic acid]
IC50 [1]: < 0.5 µM
IC50 [2]: < 0.5 µM

CCCC1(CC(=O)O)OCCc2c1[nH]c1c(C)c(OCc3cc(CC)n(C)n3)cc(C#N)c21 (stereo not shown) [Example 139]
IC50 [1]: < 0.5 µM
IC50 [2]: < 0.5 µM

CCCC1(CC(=O)O)OCCc2c1[nH]c1c(C)c(OCc3cc(C4CC4)n(C)n3)cc(C#N)c21 (stereo not shown) [Example 130]
IC50 [1]: < 0.5 µM
IC50 [2]: < 0.5 µM

CCCC1(CC(=O)O)OCCc2c1[nH]c1c(C)c(OCc3cccnc3N)cc(C#N)c21 (stereo not shown) [Example 51]
IC50 [1]: < 0.5 µM
IC50 [2]: < 0.5 µM

CCC[C@]1(CC(=O)O)OCCc2c1[nH]c1c(C)c(OCc3conc3C)cc(C#N)c21 [Example 125]
IC50 [1]: < 0.5 µM
IC50 [2]: < 0.5 µM

CCCC1(CC(=O)O)OCCc2c1[nH]c1c(C)c(OCc3ccccn3)cc(C#N)c21 (stereo not shown) [Example 49]
IC50 [1]: < 0.5 µM
IC50 [2]: < 0.5 µM

CCCC1(CC(=O)O)OCCc2c1[nH]c1c(C)c(COCC3CC3)cc(C#N)c21 (stereo not shown) [Example 8, (5-Cyano-7-cyclopropylmethoxymethyl-8-methyl-1-propyl-1,3,4,9-tetrahydro-pyrano[3,4-b]indol-1-yl)-acetic acid]
IC50 [1]: 0.5 to 5 µM
IC50 [2]: < 0.5 µM

CCC[C@@]1(CC(=O)O)OCCc2c1[nH]c1c(C)c(OCc3cc(C)on3)cc(C#N)c21 [Example 57]
IC50 [1]: > 5 µM
IC50 [2]: 0.5 to 5 µM

CCCC1(CC(=O)O)OCCc2c1[nH]c1c(C)c(COC(C)C)cc(C#N)c21 (stereo not shown) [Example 5, (5-Cyano-7-isopropoxymethyl-8-methyl-1-propyl-1,3,4,9-tetrahydro-pyrano[3,4-b]indol-1-yl)-acetic acid]
IC50 [1]: 0.5 to 5 µM
IC50 [2]: < 0.5 µM

CCCC1(CC(=O)O)OCCc2c1[nH]c1c(C)c(OCC3CCSCC3)cc(C#N)c21 (stereo not shown) [Example 106]
IC50 [1]: < 0.5 µM
IC50 [2]: < 0.5 µM

CCCC1(CC(=O)O)OCCc2c1[nH]c1c(C)c(OCc3nccn3C)cc(C#N)c21 (stereo not shown) [Example 110]
IC50 [1]: < 0.5 µM
IC50 [2]: < 0.5 µM

CCCC1(CC(=O)O)OCCc2c1[nH]c1c(C)c(OCc3ccnc(C(C)=NOC)c3)cc(C#N)c21 (stereo not shown) [Example 95]
IC50 [1]: < 0.5 µM
IC50 [2]: < 0.5 µM

CC[C@H](C)C1(CC(=O)O)OCCc2c1[nH]c1c(C)c(OCCOC(C)C)cc(C#N)c21 (mixture of isomers) [Example 34, (1R*,10S)-[1-sec-Butyl-5-cyano-7-(2-isopropoxy-ethoxy)-8-methyl-1,3,4,9-tetrahydro-pyrano[3,4-b]indol-1-yl]-acetic acid]
IC50 [1]: < 0.5 µM
IC50 [2]: < 0.5 µM

CCCC1(CC(=O)O)OCCc2c1[nH]c1c(C)c(OCc3cc(C4CC4)on3)cc(C#N)c21 (stereo not shown) [Example 127]
IC50 [1]: < 0.5 µM
IC50 [2, 3]: < 0.5 µM

CCC[C@]1(CC(=O)O)OCCc2c1[nH]c1c(C)c(OCCOC)cc(C#N)c21 [Example 44]
IC50 [1]: < 0.5 µM
IC50 [2]: < 0.5 µM

CCCC1(CC(=O)O)OCCc2c1[nH]c1c(C)c(OCc3conc3C)cc(C#N)c21 (stereo not shown) [Example 77]
IC50 [1]: < 0.5 µM
IC50 [2]: < 0.5 µM

CCCC1(CC(=O)O)OCCc2c1[nH]c1c(C)c(OCc3ccnc(C(=O)O)c3)cc(C#N)c21 (stereo not shown) [Example 61]
IC50 [1]: < 0.5 µM
IC50 [2]: < 0.5 µM

CCCC1(CC(=O)O)OCCc2c1[nH]c1c(C)c(OCc3cccc(C)n3)cc(C#N)c21 (stereo not shown) [Example 63]
IC50 [1]: < 0.5 µM
IC50 [2, 3]: < 0.5 µM

CCCC1(CC(=O)O)OCCc2c1[nH]c1c(C)c(O)cc(C#N)c21 (stereo not shown) [Example 45]
IC50 [1]: < 0.5 µM
IC50 [2]: < 0.5 µM

CCCC1(CC(=O)O)OCCc2c1[nH]c1c(C)c(OCCN(C)Cc3ccccc3)cc(C#N)c21 (stereo not shown) [Example 114]
IC50 [1]: < 0.5 µM
IC50 [2]: < 0.5 µM
